Assay [1] concerns the target Muscarinic acetylcholine receptor M3 (Homo sapiens, UniProt P20309).
The target of assay [2] is T1, Histamine H1 receptor (Homo sapiens, UniProt P35367). In kind it is functional, cell-based.
Another assay has as its target T2, Endothelin-1 receptor (Homo sapiens, UniProt P25101).
T2 sequence (P25101 whole entry): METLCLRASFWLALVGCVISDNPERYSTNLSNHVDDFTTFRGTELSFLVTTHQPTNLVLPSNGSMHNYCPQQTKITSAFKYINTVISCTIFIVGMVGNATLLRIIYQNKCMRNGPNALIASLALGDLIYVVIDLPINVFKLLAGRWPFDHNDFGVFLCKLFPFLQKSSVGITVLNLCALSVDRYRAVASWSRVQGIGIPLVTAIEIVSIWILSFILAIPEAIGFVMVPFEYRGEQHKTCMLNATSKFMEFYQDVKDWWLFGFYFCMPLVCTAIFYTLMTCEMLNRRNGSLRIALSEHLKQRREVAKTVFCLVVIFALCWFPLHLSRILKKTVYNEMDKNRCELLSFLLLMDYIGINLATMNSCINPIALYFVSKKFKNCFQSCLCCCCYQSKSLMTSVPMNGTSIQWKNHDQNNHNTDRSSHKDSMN

The target of assay [3] is T1, Histamine H1 receptor. In kind it is functional, cell-based. This is another data set of the same source.
In assay [4] the target is Beta-2 adrenergic receptor (Homo sapiens, UniProt P07550). In kind it is functional, cell-based.
Assay [5] concerns the target Gamma-aminobutyric acid receptor subunit alpha-1/alpha-2/beta-2/gamma-2 (Homo sapiens, UniProt P14867+P18507+P47869+P47870). In kind it is functional, cell-based.
The target in assay [6] is T3, Peroxisome proliferator-activated receptor gamma (Homo sapiens, UniProt P37231).
T3 sequence (P37231 whole entry): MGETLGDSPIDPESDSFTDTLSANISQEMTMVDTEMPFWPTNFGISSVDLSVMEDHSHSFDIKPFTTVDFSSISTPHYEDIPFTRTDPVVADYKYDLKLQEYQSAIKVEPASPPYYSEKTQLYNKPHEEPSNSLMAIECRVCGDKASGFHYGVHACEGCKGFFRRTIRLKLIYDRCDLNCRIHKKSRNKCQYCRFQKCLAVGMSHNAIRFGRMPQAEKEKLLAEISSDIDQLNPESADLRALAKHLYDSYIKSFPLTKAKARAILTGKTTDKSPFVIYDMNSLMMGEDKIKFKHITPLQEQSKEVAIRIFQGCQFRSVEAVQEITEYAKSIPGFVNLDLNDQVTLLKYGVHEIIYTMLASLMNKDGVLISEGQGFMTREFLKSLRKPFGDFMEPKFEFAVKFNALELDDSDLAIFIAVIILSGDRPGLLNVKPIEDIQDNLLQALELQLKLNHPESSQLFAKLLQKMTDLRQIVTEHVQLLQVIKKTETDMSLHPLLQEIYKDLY
In kind it is functional.

For the next assay, the target named is D(1A) dopamine receptor (Homo sapiens, UniProt P21728).
In assay [7] the target is T4, Alpha-1A adrenergic receptor (Homo sapiens, UniProt P35348).
T4 sequence (P35348 whole entry): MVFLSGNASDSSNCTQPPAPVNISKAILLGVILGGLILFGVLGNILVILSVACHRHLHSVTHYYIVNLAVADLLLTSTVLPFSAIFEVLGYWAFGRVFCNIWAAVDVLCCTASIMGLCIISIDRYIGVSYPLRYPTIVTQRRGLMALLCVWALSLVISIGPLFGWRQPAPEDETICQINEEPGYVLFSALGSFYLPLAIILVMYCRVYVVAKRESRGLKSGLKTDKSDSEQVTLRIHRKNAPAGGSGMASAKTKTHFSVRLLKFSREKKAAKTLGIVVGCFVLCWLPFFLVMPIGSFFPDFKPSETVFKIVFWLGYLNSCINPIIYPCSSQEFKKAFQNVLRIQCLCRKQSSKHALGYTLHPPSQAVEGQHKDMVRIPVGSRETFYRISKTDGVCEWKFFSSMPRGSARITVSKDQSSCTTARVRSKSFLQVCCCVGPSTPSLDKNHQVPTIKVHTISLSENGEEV

In the next assay the target is Cannabinoid receptor 1 (Homo sapiens, UniProt P21554).
The target of assay [8] is T5, 5-hydroxytryptamine receptor 1A (Homo sapiens, UniProt P08908).
T5 sequence (P08908 whole entry): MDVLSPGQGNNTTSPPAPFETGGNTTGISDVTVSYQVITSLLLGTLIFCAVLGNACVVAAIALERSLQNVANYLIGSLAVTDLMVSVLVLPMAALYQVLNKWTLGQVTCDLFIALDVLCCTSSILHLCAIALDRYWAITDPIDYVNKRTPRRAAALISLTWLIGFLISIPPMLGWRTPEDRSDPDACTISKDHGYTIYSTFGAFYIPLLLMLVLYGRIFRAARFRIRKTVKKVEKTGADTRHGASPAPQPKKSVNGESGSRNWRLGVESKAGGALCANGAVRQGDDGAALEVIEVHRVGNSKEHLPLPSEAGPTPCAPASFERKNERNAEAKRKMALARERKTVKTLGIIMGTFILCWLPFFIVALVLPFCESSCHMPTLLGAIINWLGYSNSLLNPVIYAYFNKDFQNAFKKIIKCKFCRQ
In kind it is functional, cell-based.

Assay [9] has as its target Voltage-dependent N-type calcium channel subunit alpha-1B (Rattus norvegicus, UniProt Q02294). In kind it is functional.
The target of assay [10] is T5, 5-hydroxytryptamine receptor 1A.
For assay [11], the target named is Beta-3 adrenergic receptor (Homo sapiens, UniProt P13945).
The target in assay [12] is T6, Muscarinic acetylcholine receptor M2 (Homo sapiens, UniProt P08172).
T6 sequence (P08172 whole entry): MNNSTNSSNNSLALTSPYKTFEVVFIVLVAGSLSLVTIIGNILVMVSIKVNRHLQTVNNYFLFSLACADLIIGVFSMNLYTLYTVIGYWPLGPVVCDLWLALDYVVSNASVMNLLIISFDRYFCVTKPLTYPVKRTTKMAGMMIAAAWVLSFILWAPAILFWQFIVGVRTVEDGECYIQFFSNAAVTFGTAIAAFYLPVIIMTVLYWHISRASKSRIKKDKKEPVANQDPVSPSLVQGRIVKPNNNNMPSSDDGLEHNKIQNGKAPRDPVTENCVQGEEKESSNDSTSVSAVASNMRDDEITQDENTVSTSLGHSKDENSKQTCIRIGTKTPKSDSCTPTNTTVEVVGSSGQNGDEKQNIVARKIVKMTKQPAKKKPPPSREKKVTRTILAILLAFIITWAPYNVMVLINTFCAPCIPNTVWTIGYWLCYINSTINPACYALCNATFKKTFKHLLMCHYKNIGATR

Some results are limits rather than exact numbers.

These results are taken from ChEMBL document CHEMBL5291721, “A preclinical secondary pharmacology resource illuminates target-adverse drug reaction associations of marketed drugs” (Nat Commun, 2023).

A word on the AC50: it is the concentration at which the activity in the assay is half-maximal.
Note: assay procedure not described here.

Cannabinoid receptor 1, sequence (P21554 whole entry): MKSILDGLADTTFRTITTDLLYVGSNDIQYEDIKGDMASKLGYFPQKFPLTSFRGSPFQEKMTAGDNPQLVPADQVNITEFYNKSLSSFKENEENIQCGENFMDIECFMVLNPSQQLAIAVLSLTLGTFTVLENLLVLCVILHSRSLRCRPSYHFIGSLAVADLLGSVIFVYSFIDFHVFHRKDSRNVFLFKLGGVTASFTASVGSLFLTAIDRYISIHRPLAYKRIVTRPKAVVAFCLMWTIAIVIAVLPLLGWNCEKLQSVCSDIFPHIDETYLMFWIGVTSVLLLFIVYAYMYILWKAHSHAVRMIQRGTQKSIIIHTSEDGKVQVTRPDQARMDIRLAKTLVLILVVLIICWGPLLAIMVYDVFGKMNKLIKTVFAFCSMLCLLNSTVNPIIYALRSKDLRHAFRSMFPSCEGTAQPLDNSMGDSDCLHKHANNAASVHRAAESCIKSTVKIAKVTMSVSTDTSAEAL
Muscarinic acetylcholine receptor M3, sequence (P20309 whole entry): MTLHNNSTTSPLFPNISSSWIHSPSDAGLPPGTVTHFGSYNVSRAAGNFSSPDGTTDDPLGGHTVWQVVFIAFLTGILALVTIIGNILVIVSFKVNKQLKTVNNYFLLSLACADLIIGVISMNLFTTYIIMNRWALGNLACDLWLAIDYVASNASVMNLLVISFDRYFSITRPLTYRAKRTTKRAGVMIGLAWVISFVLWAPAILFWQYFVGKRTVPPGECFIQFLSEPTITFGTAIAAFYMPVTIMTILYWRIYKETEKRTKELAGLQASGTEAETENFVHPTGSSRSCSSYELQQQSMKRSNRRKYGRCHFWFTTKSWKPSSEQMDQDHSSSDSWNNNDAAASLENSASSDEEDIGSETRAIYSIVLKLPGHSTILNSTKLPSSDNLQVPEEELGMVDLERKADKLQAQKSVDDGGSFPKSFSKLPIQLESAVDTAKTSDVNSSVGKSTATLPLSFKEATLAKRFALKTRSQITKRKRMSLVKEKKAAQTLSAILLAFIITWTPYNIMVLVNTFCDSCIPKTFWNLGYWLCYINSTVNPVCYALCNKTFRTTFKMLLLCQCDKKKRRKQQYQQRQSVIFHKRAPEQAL
Beta-2 adrenergic receptor, sequence (P07550 whole entry): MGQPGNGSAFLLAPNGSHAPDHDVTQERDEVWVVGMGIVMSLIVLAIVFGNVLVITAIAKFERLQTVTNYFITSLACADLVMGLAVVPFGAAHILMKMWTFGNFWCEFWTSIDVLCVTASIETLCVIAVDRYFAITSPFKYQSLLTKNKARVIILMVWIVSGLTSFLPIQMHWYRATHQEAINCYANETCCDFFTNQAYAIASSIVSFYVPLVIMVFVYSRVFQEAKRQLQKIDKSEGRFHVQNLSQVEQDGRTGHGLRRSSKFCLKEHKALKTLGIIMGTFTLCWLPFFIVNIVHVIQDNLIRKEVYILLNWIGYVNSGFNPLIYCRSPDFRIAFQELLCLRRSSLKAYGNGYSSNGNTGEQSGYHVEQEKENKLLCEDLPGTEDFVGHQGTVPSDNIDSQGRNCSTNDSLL
D(1A) dopamine receptor, sequence (P21728 whole entry): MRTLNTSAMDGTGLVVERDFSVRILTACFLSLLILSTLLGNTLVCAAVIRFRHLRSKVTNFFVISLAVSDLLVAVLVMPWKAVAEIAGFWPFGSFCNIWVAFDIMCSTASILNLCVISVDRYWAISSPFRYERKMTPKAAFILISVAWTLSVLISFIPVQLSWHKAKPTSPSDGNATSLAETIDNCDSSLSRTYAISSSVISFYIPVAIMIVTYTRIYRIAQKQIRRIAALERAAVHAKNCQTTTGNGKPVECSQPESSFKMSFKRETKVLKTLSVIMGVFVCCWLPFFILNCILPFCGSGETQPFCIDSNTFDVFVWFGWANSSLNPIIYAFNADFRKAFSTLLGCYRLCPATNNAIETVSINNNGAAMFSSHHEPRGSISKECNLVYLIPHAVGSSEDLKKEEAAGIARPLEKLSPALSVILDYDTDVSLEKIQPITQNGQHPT
Beta-3 adrenergic receptor, sequence (P13945 whole entry): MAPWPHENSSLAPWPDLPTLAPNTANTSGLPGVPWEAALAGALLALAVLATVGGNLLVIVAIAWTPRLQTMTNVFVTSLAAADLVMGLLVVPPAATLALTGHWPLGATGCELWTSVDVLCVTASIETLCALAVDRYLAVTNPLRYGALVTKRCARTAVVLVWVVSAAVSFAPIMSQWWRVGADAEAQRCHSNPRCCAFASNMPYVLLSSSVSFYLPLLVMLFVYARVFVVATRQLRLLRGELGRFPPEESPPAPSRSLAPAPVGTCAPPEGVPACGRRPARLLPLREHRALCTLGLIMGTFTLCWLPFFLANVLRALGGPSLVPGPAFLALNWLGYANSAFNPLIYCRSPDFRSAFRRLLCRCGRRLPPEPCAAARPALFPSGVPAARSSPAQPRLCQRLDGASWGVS
Gamma-aminobutyric acid receptor subunit alpha-1/alpha-2/beta-2/gamma-2, sequence (P14867 whole entry): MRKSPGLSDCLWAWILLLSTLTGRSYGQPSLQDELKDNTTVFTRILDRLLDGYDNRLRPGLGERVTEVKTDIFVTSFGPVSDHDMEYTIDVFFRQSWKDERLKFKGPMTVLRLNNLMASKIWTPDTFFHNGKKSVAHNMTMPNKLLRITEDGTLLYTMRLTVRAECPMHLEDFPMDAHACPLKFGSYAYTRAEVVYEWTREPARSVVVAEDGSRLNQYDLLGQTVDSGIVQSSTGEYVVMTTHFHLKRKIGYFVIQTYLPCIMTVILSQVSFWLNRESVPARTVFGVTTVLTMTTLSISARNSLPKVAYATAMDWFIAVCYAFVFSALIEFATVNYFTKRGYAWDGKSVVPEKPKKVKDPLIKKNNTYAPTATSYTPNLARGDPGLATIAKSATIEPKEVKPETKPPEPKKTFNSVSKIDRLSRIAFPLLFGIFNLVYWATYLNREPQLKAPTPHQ
Gamma-aminobutyric acid receptor subunit alpha-1/alpha-2/beta-2/gamma-2, sequence (P47870 whole entry): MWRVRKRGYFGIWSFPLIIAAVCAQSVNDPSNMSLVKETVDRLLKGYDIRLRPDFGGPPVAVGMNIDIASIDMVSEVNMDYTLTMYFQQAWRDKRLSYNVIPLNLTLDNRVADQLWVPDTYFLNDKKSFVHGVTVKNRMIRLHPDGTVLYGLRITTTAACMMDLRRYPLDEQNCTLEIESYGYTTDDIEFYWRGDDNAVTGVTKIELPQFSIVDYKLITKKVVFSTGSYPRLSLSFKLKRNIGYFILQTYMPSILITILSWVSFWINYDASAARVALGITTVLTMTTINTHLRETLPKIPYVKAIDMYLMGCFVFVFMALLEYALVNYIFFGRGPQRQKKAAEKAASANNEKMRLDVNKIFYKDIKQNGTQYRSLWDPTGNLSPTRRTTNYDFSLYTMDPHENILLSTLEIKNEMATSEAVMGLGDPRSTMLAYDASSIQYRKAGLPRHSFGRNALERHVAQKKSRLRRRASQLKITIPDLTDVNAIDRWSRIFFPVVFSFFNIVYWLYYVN
Gamma-aminobutyric acid receptor subunit alpha-1/alpha-2/beta-2/gamma-2, sequence (P18507 whole entry): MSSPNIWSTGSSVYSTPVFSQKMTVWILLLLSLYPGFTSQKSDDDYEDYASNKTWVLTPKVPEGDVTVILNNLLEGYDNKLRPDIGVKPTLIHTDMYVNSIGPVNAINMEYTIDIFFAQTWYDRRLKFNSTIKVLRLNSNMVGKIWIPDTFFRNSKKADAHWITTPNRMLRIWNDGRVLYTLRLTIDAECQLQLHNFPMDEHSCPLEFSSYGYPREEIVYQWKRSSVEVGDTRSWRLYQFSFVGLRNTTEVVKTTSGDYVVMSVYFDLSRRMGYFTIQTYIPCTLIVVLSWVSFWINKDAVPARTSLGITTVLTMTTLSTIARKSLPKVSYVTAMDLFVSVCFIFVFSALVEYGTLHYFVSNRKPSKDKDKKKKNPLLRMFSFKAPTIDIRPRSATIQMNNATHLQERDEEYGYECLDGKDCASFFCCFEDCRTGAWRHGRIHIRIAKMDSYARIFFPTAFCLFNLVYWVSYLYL
Gamma-aminobutyric acid receptor subunit alpha-1/alpha-2/beta-2/gamma-2, sequence (P47869 whole entry): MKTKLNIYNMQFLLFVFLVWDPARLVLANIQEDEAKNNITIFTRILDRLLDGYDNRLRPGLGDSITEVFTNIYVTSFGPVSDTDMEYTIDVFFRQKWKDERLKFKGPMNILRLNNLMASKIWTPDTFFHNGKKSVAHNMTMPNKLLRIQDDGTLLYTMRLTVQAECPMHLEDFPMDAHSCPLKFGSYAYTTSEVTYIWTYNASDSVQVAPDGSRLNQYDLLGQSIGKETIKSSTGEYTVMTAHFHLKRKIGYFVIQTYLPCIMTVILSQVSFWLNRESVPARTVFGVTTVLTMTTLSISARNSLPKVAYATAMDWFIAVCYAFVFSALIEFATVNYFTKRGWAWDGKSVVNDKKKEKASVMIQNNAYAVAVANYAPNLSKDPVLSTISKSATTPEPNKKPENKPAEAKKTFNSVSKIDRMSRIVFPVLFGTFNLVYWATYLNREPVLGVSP
T1 sequence (P35367 whole entry): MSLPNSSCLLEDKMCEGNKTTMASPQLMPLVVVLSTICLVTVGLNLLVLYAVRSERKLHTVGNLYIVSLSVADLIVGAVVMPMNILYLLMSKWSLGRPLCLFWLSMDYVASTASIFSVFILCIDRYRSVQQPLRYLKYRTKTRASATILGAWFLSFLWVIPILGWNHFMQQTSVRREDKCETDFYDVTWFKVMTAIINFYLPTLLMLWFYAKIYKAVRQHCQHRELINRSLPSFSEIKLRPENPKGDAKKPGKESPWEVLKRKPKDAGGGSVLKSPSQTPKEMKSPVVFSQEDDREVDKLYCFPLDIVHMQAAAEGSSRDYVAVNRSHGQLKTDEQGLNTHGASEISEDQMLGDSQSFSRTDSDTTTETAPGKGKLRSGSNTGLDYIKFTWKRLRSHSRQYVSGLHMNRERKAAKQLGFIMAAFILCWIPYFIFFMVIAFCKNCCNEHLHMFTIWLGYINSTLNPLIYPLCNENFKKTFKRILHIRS

Take `Oc1cc(Cl)ccc1Oc1ccc(Cl)cc1Cl` [TRICLOSAN]: the AC50 (in [1]; on Histamine H1 receptor [2]; on Endothelin-1 receptor; on Histamine H1 receptor [3]; in [4]; in assay [5]) was more than 30 µM throughout.

On to `CC(C)(Oc1ccc(Cl)cc1)C(=O)OCCOC(=O)c1cccnc1` [ETOFIBRATE], for which the AC50 (in [1]; on Endothelin-1 receptor; in [6]; in assay [4]) was more than 30 µM each time.

For the molecule `CCn1c(=O)c2c(nc(/C=C/c3ccc(OC)c(OC)c3)n2C)n(CC)c1=O` [ISTRADEFYLLINE], the AC50 at Histamine H1 receptor [2] and on Histamine H1 receptor [3] was more than 30 µM in each case.

For the molecule `CC(=O)Nc1ccc(/C=N/NC(N)=S)cc1` [AMITHIOZONE], the AC50 (on D(1A) dopamine receptor; in [7]) was more than 30 µM throughout.

Turning to `COc1ccc(C(=O)c2ccccc2)c(O)c1` [OXYBENZONE], the AC50 in assay [1], in [4] and in assay [5] was more than 30 µM in each case.

As for `OC(CN1CCCCC1)c1cc(-c2ccccc2)on1` (configuration not stated) [PERISOXAL], the AC50 on D(1A) dopamine receptor is more than 30 µM; in [7], 3.86 µM.

Turning to `CN(C)CCC(O)(c1ccccc1)c1ccccc1Cl` (configuration not stated) [CHLOPHEDIANOL], the AC50 in assay [1] is more than 30 µM; on Cannabinoid receptor 1, more than 10 µM.

As to `CC(=O)OC1CN2CCC1CC2` (configuration not stated) [ACECLIDINE], the AC50 (at D(1A) dopamine receptor; in assay [7]) was more than 30 µM throughout.

Regarding `Cc1ccc(O)c([C@H](CCN(C(C)C)C(C)C)c2ccccc2)c1` [TOLTERODINE], the AC50 in assay [8] is more than 10 µM; in assay [9], more than 10 µM; in assay [10], more than 10 µM; on Cannabinoid receptor 1, more than 10 µM; in assay [11], more than 30 µM.

Take `COc1ccc(-c2cc(=S)ss2)cc1` [ANETHOLTRITHION]: the AC50 was more than 30 µM in assay [1], more than 30 µM in assay [8] and more than 10 µM on Endothelin-1 receptor.

With `C[C@]12C=CC(=O)C=C1CC[C@@H]1[C@@H]2[C@@H](O)C[C@@]2(C)[C@H]1CC[C@]2(O)C(=O)CO` [PREDNISOLONE], the AC50 was more than 10 µM in assay [12]; more than 10 µM in assay [8]; more than 30 µM at Endothelin-1 receptor; more than 10 µM in assay [9]; more than 10 µM in assay [10]; more than 10 µM on Cannabinoid receptor 1. Also, the AC50 in assay [4] and in [11] was more than 30 µM each time.

On to `CN(C)[C@@H]1C(O)=C(C(=O)NCN2CCCC2)C(=O)[C@@]2(O)C(O)=C3C(=O)c4c(O)cccc4[C@@](C)(O)[C@H]3C[C@@H]12` [ROLITETRACYCLINE], for which the AC50 in assay [1] was more than 10 µM; in assay [8] it was more than 30 µM; at Cannabinoid receptor 1 it was more than 10 µM.

Regarding `C[C@@H](O)[C@H]1C(=O)N2C(C(=O)O)=C(S[C@@H]3CN[C@H](C(=O)Nc4cccc(C(=O)O)c4)C3)[C@H](C)[C@H]12`, the AC50 (on D(1A) dopamine receptor; in [7]) was more than 30 µM in each case.

As to `CSCC[C@H](N)C(=O)O` [METHIONINE], the AC50 (at D(1A) dopamine receptor; in assay [7]) was more than 30 µM in each case.

`C[C@]12C=CC(=O)C=C1C(Cl)=C[C@@H]1[C@@H]2[C@@H](O)C[C@@]2(C)[C@H]1CC[C@]2(O)C(=O)CO` [CLOPREDNOL]: the AC50 (in [1]; on Histamine H1 receptor [2]; in assay [8]; on Endothelin-1 receptor; at Histamine H1 receptor [3]; in assay [6]) was more than 30 µM throughout. The AC50 in assay [4] is more than 30 µM.

Turning to `CC1(C)O[C@@H]2C[C@H]3[C@@H]4CCC5=CC(=O)C=C[C@]5(C)[C@@]4(F)[C@@H](O)C[C@]3(C)[C@]2(C(=O)CO)O1` [TRIAMCINOLONE ACETONIDE], the AC50 (in assay [8]; at Endothelin-1 receptor) was more than 30 µM throughout.

Turning to `C[C@]12CCC(=O)C=C1C=C[C@@H]1[C@@H]2CC[C@@]2(C)[C@H]1CC[C@@]21CCC(=O)O1` [CANRENONE], the AC50 (in [1]; in assay [8]; on Endothelin-1 receptor; in assay [4]) was more than 30 µM throughout.

Consider `CC(C)(C)NCC(O)COc1ccccc1C#N` (configuration not stated) [BUNITROLOL], for which the AC50 in assay [1], in assay [4] and in assay [5] was more than 30 µM each time.

For the molecule `C[C@]12CCC(=O)C=C1[C@@H]1C[C@@H]1[C@H]1[C@@H]3[C@@H]4C[C@@H]4[C@@]4(CCC(=O)O4)[C@@]3(C)CC[C@@H]12` [DROSPIRENONE], the concentration at half-maximal activity (AC50) (in assay [1]; at Endothelin-1 receptor; on Cannabinoid receptor 1) was more than 30 µM in each case.

Consider `N=C(N)NC(=O)c1nc(Cl)c(N)nc1N` [AMILORIDE], for which the AC50 in assay [12] was more than 10 µM; in [8], 16 µM; at Endothelin-1 receptor, more than 30 µM; in assay [9], more than 10 µM; in assay [10], more than 10 µM; on Cannabinoid receptor 1 it was more than 30 µM. Also, the half-maximal activity concentration (AC50) in [11] is more than 30 µM.

Regarding `COc1cccc2c1C(=O)c1c(O)c3c(c(O)c1C2=O)C[C@@](O)(C(=O)CO)C[C@@H]3O[C@H]1C[C@H](N)[C@H](O)[C@H](C)O1` [DOXORUBICIN], the AC50 on Endothelin-1 receptor was more than 30 µM; in assay [9], more than 10 µM; in assay [10] it was more than 10 µM; at Cannabinoid receptor 1, more than 10 µM; in [6], more than 30 µM; in [4] it was more than 30 µM.

`CCC(=O)c1ccc2c(c1)N(CC(C)N(C)C)c1ccccc1S2` (configuration not stated) [PROPIOMAZINE]: the half-maximal activity concentration (AC50) in assay [1] was 0.18 µM; in [12] it was 0.265 µM; in [8], 2.7 µM; on Cannabinoid receptor 1, more than 10 µM.
